Experimental data: publication PMC8231556, “Inhibiting Endothelial Cell Function in Normal and Tumor Angiogenesis Using BMP Type I Receptor Macrocyclic Kinase Inhibitors” (Cancers, 2021)

Experiments:
Assay in all cases: radiometric kinase profiling (33 PanQinase)
Format in all cases: biochemical
[1] = biological target: T1, AXL (Homo sapiens, UniProt P30530); conditions: read-out: Inhibitory effect (%) AXL
T1 construct: purchased Proqinase, Germany
T1 sequence (P30530 26-894): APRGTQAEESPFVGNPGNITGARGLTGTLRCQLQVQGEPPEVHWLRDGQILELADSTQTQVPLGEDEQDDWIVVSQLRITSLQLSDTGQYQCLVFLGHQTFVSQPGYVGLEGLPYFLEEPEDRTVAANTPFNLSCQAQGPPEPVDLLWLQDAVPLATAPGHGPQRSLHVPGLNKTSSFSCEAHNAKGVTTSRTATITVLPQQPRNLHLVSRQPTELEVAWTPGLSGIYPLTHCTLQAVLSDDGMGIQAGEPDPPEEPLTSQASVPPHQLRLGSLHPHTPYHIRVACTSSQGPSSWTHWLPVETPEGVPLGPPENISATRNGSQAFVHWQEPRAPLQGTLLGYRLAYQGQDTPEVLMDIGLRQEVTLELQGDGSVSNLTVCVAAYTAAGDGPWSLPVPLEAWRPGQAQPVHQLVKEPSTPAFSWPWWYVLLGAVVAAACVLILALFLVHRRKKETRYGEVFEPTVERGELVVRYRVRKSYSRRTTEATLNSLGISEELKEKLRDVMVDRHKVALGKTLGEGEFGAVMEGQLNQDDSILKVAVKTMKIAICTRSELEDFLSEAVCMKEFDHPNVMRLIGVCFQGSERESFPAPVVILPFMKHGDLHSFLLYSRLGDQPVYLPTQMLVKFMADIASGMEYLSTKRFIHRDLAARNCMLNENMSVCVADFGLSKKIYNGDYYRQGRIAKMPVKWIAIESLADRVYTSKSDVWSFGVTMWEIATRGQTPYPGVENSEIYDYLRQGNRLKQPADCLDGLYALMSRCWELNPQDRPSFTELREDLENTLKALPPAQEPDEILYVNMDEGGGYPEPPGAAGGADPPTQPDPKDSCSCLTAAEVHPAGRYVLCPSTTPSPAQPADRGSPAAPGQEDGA
Summary of the method: (§1)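 Enzyme/substrate mixes were incubated with [γ-33P]-ATP and compound (added as a 0.1 μM solution in 10% DMSO) at 30 °C for 60 min, then stopped with H3PO4 and washed with NaCl. 33P incorporation was scintillation-counted, and residual activity (%) was normalized to untreated control and background.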

[2] = biological target: T2, DNAPK (Homo sapiens, UniProt P78527); conditions: read-out: Inhibitory effect (%) DNAPK
T2 construct: purchased Proqinase, Germany
Summary of the method: as §1

[3] = biological target: T3, DYRK1A (Homo sapiens, UniProt Q13627); conditions: read-out: Inhibitory effect (%) DYRK1A
T3 construct: purchased Proqinase, Germany
Summary of the method: as §1

[4] = biological target: T4, FER (Homo sapiens, UniProt P16591); conditions: read-out: Inhibitory effect (%) FER
T4 construct: purchased ProQinase (33PanQinase Activity Assay)
Summary of the method: as §1

[5] = biological target: T5, GRK6 (Homo sapiens, UniProt P43250); conditions: read-out: Inhibitory effect (%) GRK6
T5 construct: purchased ProQinase (33PanQinase Activity Assay)
Summary of the method: as §1

[6] = biological target: T6, LCK (Homo sapiens, UniProt P06239); conditions: read-out: Inhibitory effect (%) LCK
T6 construct: purchased ProQinase (33PanQinase Activity Assay)
Summary of the method: as §1

[7] = biological target: T7, MET (Homo sapiens, UniProt P08581); conditions: read-out: Inhibitory effect (%) MET
T7 construct: purchased ProQinase (33PanQinase Activity Assay)
Summary of the method: as §1

[8] = biological target: T8, PLK4 (Homo sapiens, UniProt O00444); conditions: read-out: Inhibitory effect (%) PLK4
T8 construct: purchased ProQinase (33PanQinase Activity Assay)
T8 sequence (O00444 1-970): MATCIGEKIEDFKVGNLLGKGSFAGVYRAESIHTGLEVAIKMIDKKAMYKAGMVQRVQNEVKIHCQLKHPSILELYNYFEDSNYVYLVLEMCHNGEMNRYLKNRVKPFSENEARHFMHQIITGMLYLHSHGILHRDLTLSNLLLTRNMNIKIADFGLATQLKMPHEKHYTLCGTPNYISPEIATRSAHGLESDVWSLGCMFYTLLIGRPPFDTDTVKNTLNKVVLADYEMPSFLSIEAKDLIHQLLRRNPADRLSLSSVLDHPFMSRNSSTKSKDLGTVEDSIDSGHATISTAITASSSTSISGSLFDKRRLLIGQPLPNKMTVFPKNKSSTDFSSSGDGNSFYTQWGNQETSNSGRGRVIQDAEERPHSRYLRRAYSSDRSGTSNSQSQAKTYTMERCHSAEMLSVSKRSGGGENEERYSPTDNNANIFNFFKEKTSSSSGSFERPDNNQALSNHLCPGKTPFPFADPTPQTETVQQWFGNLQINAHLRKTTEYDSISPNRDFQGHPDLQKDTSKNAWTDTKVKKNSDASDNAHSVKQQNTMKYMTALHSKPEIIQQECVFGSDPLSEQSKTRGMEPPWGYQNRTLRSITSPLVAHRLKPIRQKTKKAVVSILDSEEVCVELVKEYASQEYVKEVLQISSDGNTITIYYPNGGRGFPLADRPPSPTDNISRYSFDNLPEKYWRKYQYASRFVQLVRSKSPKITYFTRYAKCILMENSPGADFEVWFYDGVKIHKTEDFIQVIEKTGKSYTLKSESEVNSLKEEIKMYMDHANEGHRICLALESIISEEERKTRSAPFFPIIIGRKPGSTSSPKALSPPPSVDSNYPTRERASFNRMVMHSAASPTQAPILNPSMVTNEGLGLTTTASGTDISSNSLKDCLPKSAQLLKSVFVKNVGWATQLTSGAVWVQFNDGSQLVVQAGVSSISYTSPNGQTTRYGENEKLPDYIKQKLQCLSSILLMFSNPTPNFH
Summary of the method: as §1

[9] = biological target: T9, PTK2 (Homo sapiens, UniProt Q05397); conditions: read-out: Inhibitory effect (%) PTK2
T9 construct: purchased ProQinase (33PanQinase Activity Assay)
Summary of the method: as §1

[10] = biological target: T10, ROCK2 (Homo sapiens, UniProt O75116); conditions: read-out: Inhibitory effect (%) ROCK2
T10 construct: purchased ProQinase (33PanQinase Activity Assay)
Summary of the method: as §1

[11] = biological target: T11, SLK (Homo sapiens, UniProt Q9H2G2); conditions: read-out: Inhibitory effect (%) SLK
T11 construct: purchased ProQinase (33PanQinase Activity Assay)
Summary of the method: as §1

T10 sequence (O75116 whole entry): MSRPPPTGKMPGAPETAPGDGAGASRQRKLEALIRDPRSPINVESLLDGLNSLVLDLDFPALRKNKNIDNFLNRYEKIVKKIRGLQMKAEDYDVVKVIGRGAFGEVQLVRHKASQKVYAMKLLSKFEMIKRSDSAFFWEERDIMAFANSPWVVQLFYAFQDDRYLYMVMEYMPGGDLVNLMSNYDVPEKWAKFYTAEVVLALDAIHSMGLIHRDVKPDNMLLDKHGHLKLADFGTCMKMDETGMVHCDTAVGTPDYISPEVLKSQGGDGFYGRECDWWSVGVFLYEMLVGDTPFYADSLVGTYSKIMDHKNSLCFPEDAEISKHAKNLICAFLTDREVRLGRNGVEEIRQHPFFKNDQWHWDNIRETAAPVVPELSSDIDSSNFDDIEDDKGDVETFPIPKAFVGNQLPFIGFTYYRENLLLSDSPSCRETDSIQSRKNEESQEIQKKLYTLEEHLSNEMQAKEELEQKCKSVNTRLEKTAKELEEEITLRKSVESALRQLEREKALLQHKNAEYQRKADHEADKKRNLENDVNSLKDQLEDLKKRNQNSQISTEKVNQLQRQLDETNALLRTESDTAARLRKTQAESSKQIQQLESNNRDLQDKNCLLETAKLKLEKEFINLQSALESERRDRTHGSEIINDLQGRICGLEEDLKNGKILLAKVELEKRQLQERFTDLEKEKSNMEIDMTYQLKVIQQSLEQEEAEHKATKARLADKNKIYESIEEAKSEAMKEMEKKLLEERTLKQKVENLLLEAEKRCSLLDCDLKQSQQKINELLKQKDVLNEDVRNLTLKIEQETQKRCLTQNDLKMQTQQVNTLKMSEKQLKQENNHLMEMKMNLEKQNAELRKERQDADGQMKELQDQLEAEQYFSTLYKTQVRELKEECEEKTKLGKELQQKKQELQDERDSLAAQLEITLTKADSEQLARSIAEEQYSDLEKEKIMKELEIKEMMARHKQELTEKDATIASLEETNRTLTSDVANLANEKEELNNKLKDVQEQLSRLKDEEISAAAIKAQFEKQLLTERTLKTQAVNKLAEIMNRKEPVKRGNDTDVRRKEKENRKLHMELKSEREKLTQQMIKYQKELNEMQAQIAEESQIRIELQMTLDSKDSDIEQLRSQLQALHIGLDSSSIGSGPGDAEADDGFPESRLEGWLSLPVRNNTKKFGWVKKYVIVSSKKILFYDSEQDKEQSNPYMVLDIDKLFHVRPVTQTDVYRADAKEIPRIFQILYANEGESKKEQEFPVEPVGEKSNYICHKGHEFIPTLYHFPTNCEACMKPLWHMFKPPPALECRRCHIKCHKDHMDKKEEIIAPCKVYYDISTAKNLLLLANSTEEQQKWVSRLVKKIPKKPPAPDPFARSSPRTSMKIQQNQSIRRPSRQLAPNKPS
T11 sequence (Q9H2G2 whole entry): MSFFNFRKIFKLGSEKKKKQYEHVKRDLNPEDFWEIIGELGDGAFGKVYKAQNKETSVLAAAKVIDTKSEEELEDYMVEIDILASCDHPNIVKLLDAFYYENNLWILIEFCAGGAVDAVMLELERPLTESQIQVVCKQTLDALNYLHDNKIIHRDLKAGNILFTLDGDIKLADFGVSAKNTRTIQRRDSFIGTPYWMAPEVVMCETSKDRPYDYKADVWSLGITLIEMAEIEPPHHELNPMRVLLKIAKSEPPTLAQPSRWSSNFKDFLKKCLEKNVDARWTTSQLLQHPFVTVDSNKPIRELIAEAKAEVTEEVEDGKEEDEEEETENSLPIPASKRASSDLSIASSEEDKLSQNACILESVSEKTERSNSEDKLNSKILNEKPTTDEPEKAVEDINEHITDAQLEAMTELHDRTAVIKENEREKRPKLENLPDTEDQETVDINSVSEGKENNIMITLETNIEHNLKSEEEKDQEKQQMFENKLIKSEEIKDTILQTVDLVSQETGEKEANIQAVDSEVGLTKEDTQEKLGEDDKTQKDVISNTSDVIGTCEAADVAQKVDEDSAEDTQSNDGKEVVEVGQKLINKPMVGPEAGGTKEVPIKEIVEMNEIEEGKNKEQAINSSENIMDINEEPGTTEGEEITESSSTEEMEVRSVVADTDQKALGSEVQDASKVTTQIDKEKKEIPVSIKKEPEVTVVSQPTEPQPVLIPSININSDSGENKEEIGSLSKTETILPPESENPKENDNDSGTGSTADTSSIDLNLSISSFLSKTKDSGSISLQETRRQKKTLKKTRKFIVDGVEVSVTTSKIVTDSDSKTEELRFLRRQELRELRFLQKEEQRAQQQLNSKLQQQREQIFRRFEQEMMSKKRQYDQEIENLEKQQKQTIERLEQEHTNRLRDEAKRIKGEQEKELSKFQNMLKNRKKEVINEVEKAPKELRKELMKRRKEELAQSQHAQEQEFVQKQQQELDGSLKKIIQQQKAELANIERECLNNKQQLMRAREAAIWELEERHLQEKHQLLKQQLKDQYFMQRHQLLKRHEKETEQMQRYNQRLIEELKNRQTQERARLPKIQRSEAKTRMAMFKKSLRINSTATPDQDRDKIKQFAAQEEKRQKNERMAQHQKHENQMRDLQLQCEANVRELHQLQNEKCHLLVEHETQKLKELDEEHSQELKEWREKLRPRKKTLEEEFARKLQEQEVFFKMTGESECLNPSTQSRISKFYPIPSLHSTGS
T9 sequence (Q05397 whole entry): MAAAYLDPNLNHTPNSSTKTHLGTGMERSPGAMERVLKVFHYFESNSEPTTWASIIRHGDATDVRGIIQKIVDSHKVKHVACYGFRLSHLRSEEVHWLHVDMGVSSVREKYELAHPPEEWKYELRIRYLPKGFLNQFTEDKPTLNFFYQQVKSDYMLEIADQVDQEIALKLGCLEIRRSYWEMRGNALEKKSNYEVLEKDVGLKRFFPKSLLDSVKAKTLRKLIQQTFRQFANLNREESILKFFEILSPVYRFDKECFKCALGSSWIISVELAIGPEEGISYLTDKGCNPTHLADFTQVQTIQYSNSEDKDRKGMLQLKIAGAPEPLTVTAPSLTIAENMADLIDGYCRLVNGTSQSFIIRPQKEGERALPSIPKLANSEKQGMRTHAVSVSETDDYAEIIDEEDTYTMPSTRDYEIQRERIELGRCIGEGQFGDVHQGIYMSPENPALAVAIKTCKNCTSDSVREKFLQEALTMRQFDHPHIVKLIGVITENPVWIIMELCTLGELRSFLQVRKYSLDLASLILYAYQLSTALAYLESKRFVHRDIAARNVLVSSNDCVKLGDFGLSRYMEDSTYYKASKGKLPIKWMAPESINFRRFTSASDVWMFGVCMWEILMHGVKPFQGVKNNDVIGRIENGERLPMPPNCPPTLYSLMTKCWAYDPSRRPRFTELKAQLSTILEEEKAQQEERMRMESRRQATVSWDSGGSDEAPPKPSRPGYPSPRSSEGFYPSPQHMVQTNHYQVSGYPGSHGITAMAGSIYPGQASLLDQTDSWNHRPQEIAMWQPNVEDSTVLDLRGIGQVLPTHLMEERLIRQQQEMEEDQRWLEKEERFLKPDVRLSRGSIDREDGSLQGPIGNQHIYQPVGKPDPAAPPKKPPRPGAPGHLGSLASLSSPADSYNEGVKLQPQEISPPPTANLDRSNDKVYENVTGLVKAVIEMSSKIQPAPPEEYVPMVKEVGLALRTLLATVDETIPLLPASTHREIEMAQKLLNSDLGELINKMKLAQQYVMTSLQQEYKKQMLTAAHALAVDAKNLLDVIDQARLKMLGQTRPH
T7 sequence (P08581 25-1390): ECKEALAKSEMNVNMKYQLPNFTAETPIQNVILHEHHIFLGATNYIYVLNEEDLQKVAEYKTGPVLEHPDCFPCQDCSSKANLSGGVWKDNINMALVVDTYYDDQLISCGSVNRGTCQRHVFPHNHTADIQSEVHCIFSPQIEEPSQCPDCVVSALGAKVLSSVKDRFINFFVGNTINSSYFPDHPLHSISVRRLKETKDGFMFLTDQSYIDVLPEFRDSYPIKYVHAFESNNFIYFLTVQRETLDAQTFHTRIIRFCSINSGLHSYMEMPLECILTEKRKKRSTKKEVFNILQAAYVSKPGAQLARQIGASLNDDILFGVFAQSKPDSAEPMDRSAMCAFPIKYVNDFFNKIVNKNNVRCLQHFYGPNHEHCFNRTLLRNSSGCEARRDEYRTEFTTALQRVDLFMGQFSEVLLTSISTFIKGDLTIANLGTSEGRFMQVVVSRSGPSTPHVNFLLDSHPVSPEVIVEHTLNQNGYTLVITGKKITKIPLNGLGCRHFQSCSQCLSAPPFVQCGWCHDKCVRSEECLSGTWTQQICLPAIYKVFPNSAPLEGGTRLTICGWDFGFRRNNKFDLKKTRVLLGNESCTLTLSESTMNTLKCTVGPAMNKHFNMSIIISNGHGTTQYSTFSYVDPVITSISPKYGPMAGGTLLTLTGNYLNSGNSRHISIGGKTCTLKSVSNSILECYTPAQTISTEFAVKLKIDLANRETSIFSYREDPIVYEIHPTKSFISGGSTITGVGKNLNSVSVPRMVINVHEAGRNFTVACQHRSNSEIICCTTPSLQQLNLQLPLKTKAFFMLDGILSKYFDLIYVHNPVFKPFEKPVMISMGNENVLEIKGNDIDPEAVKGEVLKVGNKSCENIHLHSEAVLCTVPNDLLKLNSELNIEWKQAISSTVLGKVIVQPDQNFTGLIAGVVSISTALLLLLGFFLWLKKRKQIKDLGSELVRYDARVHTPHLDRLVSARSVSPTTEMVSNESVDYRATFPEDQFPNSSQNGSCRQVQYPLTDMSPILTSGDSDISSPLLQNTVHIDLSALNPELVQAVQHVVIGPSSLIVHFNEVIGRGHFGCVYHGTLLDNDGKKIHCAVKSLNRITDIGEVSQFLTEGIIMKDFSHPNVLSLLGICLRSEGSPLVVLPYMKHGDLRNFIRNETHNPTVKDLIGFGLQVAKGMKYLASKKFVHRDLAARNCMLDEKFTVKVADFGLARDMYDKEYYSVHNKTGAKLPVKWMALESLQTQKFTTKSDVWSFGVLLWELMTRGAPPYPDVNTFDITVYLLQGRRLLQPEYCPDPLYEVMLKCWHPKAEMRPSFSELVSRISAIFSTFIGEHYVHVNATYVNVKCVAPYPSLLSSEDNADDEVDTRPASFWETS

Row | SMILES | inhibition at 0.1 µM [1] [%] | inhibition at 0.1 µM [2] [%] | inhibition at 0.1 µM [3] [%] | inhibition at 0.1 µM [4] [%] | inhibition at 0.1 µM [5] [%] | inhibition at 0.1 µM [6] [%] | inhibition at 0.1 µM [7] [%] | inhibition at 0.1 µM [8] [%] | inhibition at 0.1 µM [9] [%] | inhibition at 0.1 µM [10] [%] | inhibition at 0.1 µM [11] [%]
1 | CN1CCC(=O)NCCNc2ccn3ncc(c3n2)-c2cccc(c2)C1 [OD29] | 5.83 | 12.9 | -7.58 | -7.91 | 0.04 | 35.6 | -3.42 | 4.1 | -0.22 | -0.26 | 27.7
2 | CN1CCc2cccc(c2)Nc2nccc(n2)N2CCCc3cc(ccc32)C1 [OD16] | -34.5 | -8.88 | -6.26 | -18.9 | -2.14 | 6.7 | 5.95 | 41.4 | 17.1 | 42.6 | 26.5
3 | c1ccc2c(-c3cnn4cc(-c5ccc(N6CCNCC6)cc5)cnc34)ccnc2c1 [LDN-193189, reference compound] | 10.7 | -29.6 | -15.6 | 14.4 | -1.81 | 25.4 | 1.47 | -34.4 | 4.03 | 13.1 | -18.4
